Measured values published in US20020025940A1, “Methods and compositions for sensitive and rapid, functional identification of genomic polynucleotides and use for cellular assays in drug discovery” (Aurora Biosciences Corporation, priority 1997, published 2002).
Read-outs that look alike come from different tables or passages of the source. Values belong to the molecule of their own block, whether it stands above or below them.

Experiments:
[1] = system: T-cell receptor pathway (clone J32-6D4)
Source text: Thus, this clone was used to identify chemicals that inhibit this T-cell receptor pathway that is also stimulated by the PKC activator PMA.

[2] = system: BLEC integrated RBL-1 cell clones; experiment: FACS of BLEC-1 integrated RBL-1 clones after ionomycin stimulation (CCF2/AM blue/green); format: cell-based, rat
Method: This library of BLEC-1 integrated clones was loaded with the fluorescent substrate of BL (CCF-2-AM) by adding 10 microM CCF-2-AM in HBSS containing […] at pH 7.1 and 1% glucose. After a 1 hour incubation at 22° C. cells were washed with HBSS and viewed upon excitation with 400 nm light using a 435 nm long pass emission filter. Under these assay conditions 10% of the cells were blue fluorescent indicating they were expressing beta-lactamase.
Fluorescent activated cell sorting of multi-clonal populations of RBL-1 gene integrated clones was used to identify clones with regulated BL gene expression. A BL non-expressing population of cells was isolated by sorting a library of BLEC-1 integrated clones generated by transfection of RBL-1 cells as described in Example 2. 180,000 clones expressing little or no BL were isolated by sorting for clones with a low blue/green ratio (R1 population), as shown in FIG. 4A. This population of clones was grown for seven days and resorted by FACS to test the population's fluorescent properties. […] It is also clear that the total population has shifted towards more green cells compared to the parent population, as shown in FIG. 4A. There are, however, cells with a high blue/green ratio showing up in the green sorted population. These may represent clones in which the BLEC has integrated into a differentially regulated gene such as a gene whose expression changes throughout the cell cycle.
The population of RBL-1 clones shown in FIG. 4B was stimulated by addition of 1 uM ionomycin for 6 hours and resorted to identify clones which had the BLEC integrated into a gene which is inducible by increasing intracellular calcium. A greater percentage of blue clones were present in all three of the blue sub-population (R4, R2, R5) in the ionomycin stimulated when compared to the unstimulated population.

[3] = system: Jurkat cells; experiment: Proliferation assay (MTT), Jurkat cells; format: cell-based, human; conditions: concentrations up to 10 microM, five days
Method: (§1) Chemicals A and B were further tested for their anti-proliferative effect on Jurkat cells and mouse L-cells (mouse fibroblast cell line). […] Proliferation assays were performed by seeding about 20,000 cells unactivated by PHA into a 24 well plate. These cells were contacted with chemicals and were then incubated at 37° C. for five days. The cells were contacted with 10 micrograms/ml of MTT (Sigma Chemical Co., MO) for three hours. The cells were then collected, resuspended in isopropanol, and the absorbance was read in a plate reader at a wavelength of 570 nm with a background subtraction at a reading at a wavelength of 690 nm (see, Carmichael et al., Cancer Res. 47:936 (1987)).

[4] = system: mouse L-cells (mouse fibroblast cell line); experiment: Proliferation assay (MTT), mouse L-cells; format: cell-based; conditions: concentrations up to 10 microM, five days
Method: as §1

[5] = 10 microM chemical, 1 microgram/ml of PHA for 18 hours

SMILES: [O-][n+]1ccccc1SSc1cccc[n+]1[O-] [Dipyrithione]
% Inhibition of PHA activation of Clone J32-6D4 [1, 5]: 70%

SMILES: Nc1nc2nc[nH]c2c(=S)[nH]1 [Thioguanine]
% Inhibition of PHA activation of Clone J32-6D4 [1, 5]: 50%

SMILES: CN(C)c1ccc(C(=C2C=CC(=[N+](C)C)C=C2)c2ccc(N(C)C)cc2)cc1 [Gentian Violet]
% Inhibition of PHA activation of Clone J32-6D4 [1, 5]: 73%

SMILES: C[C@H](CCC(=O)O)C[C@H](C)C[C@H](C)C(=O)/C=C(\O)[C@H](C)C[C@H](C)C/C=C/[C@@H](C)[C@@H](O)[C@@H](C)[C@@H](O)C[C@@H]1CC[C@@](C)([C@H]2CC[C@@](C)([C@@H](C)O)O2)O1 [Ionomycin, ionomycin]
Ratio +Ion/−Ion, sort window R4 (blue) ([2]; 1 uM ionomycin vs unstimulated): 2.2
Ratio +Ion/−Ion, sort window R5 ([2]; 1 uM ionomycin vs unstimulated): 1.6
Ratio +Ion/−Ion, sort window R6 (green) ([2]; 1 uM ionomycin vs unstimulated): .9
Stimulated % of cells in sort window R4 (blue) ([2]; 1 uM ionomycin, 6 hours, R4 highest blue/green ratio): .24%
Stimulated % of cells in sort window R5 ([2]; 1 uM ionomycin, 6 hours, R5 lower blue/green ratio): 2.5%
Stimulated % of cells in sort window R6 (green) ([2]; 1 uM ionomycin, 6 hours, R6 green): 61.64%

IC50 ([1]; Homo sapiens, T-cell, read-out: IC50 of the inhibition of PHA activation of beta-lactamase expression): ~0.2 µM
SMILES: O=C(O)/C=C/c1ccc2ccccc2n1 [chemical B]
anti-proliferative effect on Jurkats [3]: no anti-proliferative effect
anti-proliferative effect on L-cells [4]: no anti-proliferative effect

SMILES: C[C@H]1O[C@@H](O[C@H]2[C@@H](O)C[C@H](O[C@H]3[C@@H](O)C[C@H](O[C@H]4CC[C@@]5(C)[C@H](CC[C@@H]6[C@@H]5C[C@@H](O)[C@]5(C)[C@@H](C7=CC(=O)OC7)CC[C@]65O)C4)O[C@@H]3C)O[C@@H]2C)C[C@H](O)[C@@H]1O [Digoxin]
% Inhibition of PHA activation of Clone J32-6D4 [1]: 86%

SMILES: C[C@@H]1O[C@@H](O[C@H]2C[C@@H](O)[C@]3(CO)[C@H]4[C@H](O)C[C@]5(C)[C@@H](C6=CC(=O)OC6)CC[C@]5(O)[C@@H]4CC[C@]3(O)C2)[C@H](O)[C@H](O)[C@H]1O [Quabain]
% Inhibition of PHA activation of Clone J32-6D4 [1, 5]: 50%

SMILES: C[C@H]1O[C@@H](O[C@H]2[C@@H](O)C[C@H](O[C@H]3[C@@H](O)C[C@H](O[C@H]4CC[C@@]5(C)[C@H](CC[C@@H]6[C@@H]5CC[C@]5(C)[C@@H](C7=CC(=O)OC7)CC[C@]65O)C4)O[C@@H]3C)O[C@@H]2C)C[C@H](O)[C@@H]1O [Digitoxin]
% Inhibition of PHA activation of Clone J32-6D4 [1, 5]: 77%

SMILES: CCCCC1C(=O)N(c2ccccc2)N(c2ccc(O)cc2)C1=O (stereo not shown) [Oxyphenbutazone]
% Inhibition of PHA activation of Clone J32-6D4 [1, 5]: 75%
